{
  "source": "patent US20240158446A1",
  "about": "“CYCLIC COMPOUND HAVING SELECTIVE INHIBITORY ACTION ON KRAS OVER HRAS AND NRAS” (CHUGAI SEIYAKU KABUSHIKI KAISHA, priority 2021, published 2024)",
  "key": {"[1]": {"molecular_target": "GDP-bound NRAS wild-type protein (Homo sapiens, UniProt P01111)", "sequence (P01111 whole entry)": "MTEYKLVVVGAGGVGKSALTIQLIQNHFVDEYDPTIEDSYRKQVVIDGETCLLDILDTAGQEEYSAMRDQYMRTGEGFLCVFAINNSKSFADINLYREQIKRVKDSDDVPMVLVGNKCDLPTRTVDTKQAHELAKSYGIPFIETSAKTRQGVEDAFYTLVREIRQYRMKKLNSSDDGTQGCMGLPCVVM", "test": "Binding to NRAS by surface plasmon resonance (SPR), Single Cycle Kinetics", "conditions": "SPR, GDP-bound NRAS wild-type protein vs GDP-bound KRAS wild-type protein"}, "[2]": {"molecular_target": "GDP-bound HRAS wild-type protein (Homo sapiens, UniProt P01112)", "sequence (P01112 whole entry)": "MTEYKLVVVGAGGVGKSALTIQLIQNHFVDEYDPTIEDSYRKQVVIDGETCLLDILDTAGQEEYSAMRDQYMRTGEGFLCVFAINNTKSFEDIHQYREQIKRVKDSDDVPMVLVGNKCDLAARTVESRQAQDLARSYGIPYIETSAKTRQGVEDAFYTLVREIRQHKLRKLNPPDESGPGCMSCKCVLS", "test": "Binding to HRAS by surface plasmon resonance (SPR), Single Cycle Kinetics", "conditions": "SPR, GDP-bound HRAS wild-type protein vs GDP-bound KRAS wild-type protein"}, "[3]": {"molecular_target": "GDP-bound KRAS wild-type protein (Homo sapiens, UniProt P01116)", "sequence (P01116 whole entry)": "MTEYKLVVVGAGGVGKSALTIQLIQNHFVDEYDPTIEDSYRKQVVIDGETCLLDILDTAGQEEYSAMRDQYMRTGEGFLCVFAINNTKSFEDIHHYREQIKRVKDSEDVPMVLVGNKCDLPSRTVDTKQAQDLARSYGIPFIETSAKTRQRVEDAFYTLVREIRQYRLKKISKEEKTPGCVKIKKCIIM", "test": "Binding to KRAS by surface plasmon resonance (SPR), Single Cycle Kinetics", "conditions": "SPR Single Cycle Kinetics, GDP-bound KRAS wild-type protein, 1:1 binding model; read-out: KRAS KD"}},
  "note": "pKd: −log10 of the molar value. *1 amine or outer side, *2 acyl side, *3 side chain or, on linkers, in order; H or OH if unused. Where a SMILES comes first, the peptide text is derived from it. Bridges are numbered along the chain shown (N, C = ends). [ ]: non-standard residue; d: D form. The star is where a group is joined. X25 = O=C([C@H](Cc1ccc(C(F)(F)F)cc1)N(CCC(F)(F)F)[*:1])[*:2]; hPhe(3-Cl-4-CF3) = N[C@@H](CCc1ccc(C(F)(F)F)c(Cl)c1)C(=O)O; X23 = C=CCCN([C@@H](Cc1ccc(C(F)(F)F)cc1)C(=O)[*:2])[*:1]; X31 = COCCCN([C@@H](Cc1ccc(C(F)(F)F)cc1)C(=O)[*:2])[*:1]; X32 = COCCN([C@@H](Cc1ccc(C(F)(F)F)cc1)C(=O)[*:2])[*:1]; X38 = C#CCN([C@@H](Cc1ccc(C(F)(F)F)cc1)C(=O)[*:2])[*:1]; NMeGly(cPent) = CN[C@H](C(=O)O)C1CCCC1; NMeD = CN[C@@H](CC(=O)O)C(=O)O; NMeL = CN[C@@H](CC(C)C)C(=O)O; Morpholide = C1CN(*)CCO1; Ac5c = NC1(C(=O)O)CCCC1; Sar = CNCC(=O)O",
  "data": [
    {"molecule": "C=CCCN1C(=O)CN(C)C(=O)CN(C)C(=O)[C@H]([C@@H](C)CC)NC(=O)[C@H](CC(C)C)N(C)C(=O)C[C@@H](C(=O)N2CCOCC2)N(C)C(=O)[C@H](C2CCCC2)N(C)C(=O)C2(CCCC2)NC(=O)[C@@H]2CCCN2C(=O)[C@H](CCc2ccc(C(F)(F)F)c(Cl)c2)NC(=O)CN(C)C(=O)[C@@H]1Cc1ccc(C(F)(F)F)cc1", "note": "[PP0129] ([NMeL]I[Sar][Sar][X23][Sar][hPhe(3-Cl-4-CF3)]P[Ac5c][NMeGly(cPent)][NMeD]-Morpholide; lactam N-11)", "values": [
      {"measurement": "NRAS/KRAS (ratio of KD value for NRAS to KD value for KRAS)", "setting": "[1]", "value": "B (a compound having 3 or more and less than 10 is denoted as B)"},
      {"measurement": "HRAS/KRAS (ratio of KD value for HRAS to KD value for KRAS)", "setting": "[2]", "value": "C (A compound having a KD ratio of 0.1 or more and less than 3 is denoted as C)"},
      {"measurement": "pKd", "setting": "[3]", "value": 9.70}
    ]},
    {"molecule": "C#CCN1C(=O)CN(C)C(=O)CN(C)C(=O)[C@H]([C@@H](C)CC)NC(=O)[C@H](CC(C)C)N(C)C(=O)C[C@@H](C(=O)N2CCOCC2)N(C)C(=O)[C@H](C2CCCC2)N(C)C(=O)C2(CCCC2)NC(=O)[C@@H]2CCCN2C(=O)[C@H](CCc2ccc(C(F)(F)F)c(Cl)c2)NC(=O)CN(C)C(=O)[C@@H]1Cc1ccc(C(F)(F)F)cc1", "note": "[PP0130] ([NMeL]I[Sar][Sar][X38][Sar][hPhe(3-Cl-4-CF3)]P[Ac5c][NMeGly(cPent)][NMeD]-Morpholide; lactam N-11)", "values": [
      {"measurement": "NRAS/KRAS (ratio of KD value for NRAS to KD value for KRAS)", "setting": "[1]", "value": "C (A compound having a KD ratio of 0.1 or more and less than 3 is denoted as C)"},
      {"measurement": "HRAS/KRAS (ratio of KD value for HRAS to KD value for KRAS)", "setting": "[2]", "value": "C (A compound having a KD ratio of 0.1 or more and less than 3 is denoted as C)"},
      {"measurement": "pKd", "setting": "[3]", "value": 9.60}
    ]},
    {"molecule": "CC[C@H](C)[C@@H]1NC(=O)[C@H](CC(C)C)N(C)C(=O)C[C@@H](C(=O)N2CCOCC2)N(C)C(=O)[C@H](C2CCCC2)N(C)C(=O)C2(CCCC2)NC(=O)[C@@H]2CCCN2C(=O)[C@H](CCc2ccc(C(F)(F)F)c(Cl)c2)NC(=O)CN(C)C(=O)[C@H](Cc2ccc(C(F)(F)F)cc2)N(CCC(F)(F)F)C(=O)CN(C)C(=O)CN(C)C1=O", "note": "[PP0131] ([NMeL]I[Sar][Sar][X25][Sar][hPhe(3-Cl-4-CF3)]P[Ac5c][NMeGly(cPent)][NMeD]-Morpholide; lactam N-11)", "values": [
      {"measurement": "NRAS/KRAS (ratio of KD value for NRAS to KD value for KRAS)", "setting": "[1]", "value": "B (a compound having 3 or more and less than 10 is denoted as B)"},
      {"measurement": "HRAS/KRAS (ratio of KD value for HRAS to KD value for KRAS)", "setting": "[2]", "value": "C (A compound having a KD ratio of 0.1 or more and less than 3 is denoted as C)"},
      {"measurement": "pKd", "setting": "[3]", "value": 9.85}
    ]},
    {"molecule": "CC[C@H](C)[C@@H]1NC(=O)[C@H](CC(C)C)N(C)C(=O)C[C@@H](C(=O)N2CCOCC2)N(C)C(=O)[C@H](C2CCCC2)N(C)C(=O)C2(CCCC2)NC(=O)[C@@H]2CCCN2C(=O)[C@H](CCc2ccc(C(F)(F)F)c(Cl)c2)NC(=O)CN(C)C(=O)[C@H](Cc2ccc(C(F)(F)F)cc2)N(CCOC)C(=O)CN(C)C(=O)CN(C)C1=O", "note": "[PP0132] ([NMeL]I[Sar][Sar][X32][Sar][hPhe(3-Cl-4-CF3)]P[Ac5c][NMeGly(cPent)][NMeD]-Morpholide; lactam N-11)", "values": [
      {"measurement": "NRAS/KRAS (ratio of KD value for NRAS to KD value for KRAS)", "setting": "[1]", "value": "C (A compound having a KD ratio of 0.1 or more and less than 3 is denoted as C)"},
      {"measurement": "HRAS/KRAS (ratio of KD value for HRAS to KD value for KRAS)", "setting": "[2]", "value": "C (A compound having a KD ratio of 0.1 or more and less than 3 is denoted as C)"},
      {"measurement": "pKd", "setting": "[3]", "value": 9.70}
    ]},
    {"molecule": "CC[C@H](C)[C@@H]1NC(=O)[C@H](CC(C)C)N(C)C(=O)C[C@@H](C(=O)N2CCOCC2)N(C)C(=O)[C@H](C2CCCC2)N(C)C(=O)C2(CCCC2)NC(=O)[C@@H]2CCCN2C(=O)[C@H](CCc2ccc(C(F)(F)F)c(Cl)c2)NC(=O)CN(C)C(=O)[C@H](Cc2ccc(C(F)(F)F)cc2)N(CCCOC)C(=O)CN(C)C(=O)CN(C)C1=O", "note": "[PP0133] ([NMeL]I[Sar][Sar][X31][Sar][hPhe(3-Cl-4-CF3)]P[Ac5c][NMeGly(cPent)][NMeD]-Morpholide; lactam N-11)", "values": [
      {"measurement": "NRAS/KRAS (ratio of KD value for NRAS to KD value for KRAS)", "setting": "[1]", "value": "B (a compound having 3 or more and less than 10 is denoted as B)"},
      {"measurement": "HRAS/KRAS (ratio of KD value for HRAS to KD value for KRAS)", "setting": "[2]", "value": "C (A compound having a KD ratio of 0.1 or more and less than 3 is denoted as C)"},
      {"measurement": "pKd", "setting": "[3]", "value": 10.10}
    ]}
  ]
}
